# Experimental data: patent publication US20170314056A1, “METHOD OF USING NEAR INFRARED FLUORESCENT DYES FOR IMAGING AND TARGETING CANCERS” (priority 2010, published 2017)
# “Also recorded” adds a separate entry of the source. Like-named read-outs stand apart in the source and are kept apart here.
# Columns and labels:
# [1] = tested on: normal human cells; assay: Uptake of NIR dyes by cultured normal human cells; assay type: cell-based; settings: HS-27A/BMC, NPE, NPF, HUVEC-CS, HEK293; 20 μM dye, 30 min
# Method: Cells (1×10^4/well) were seeded on vitronectin-coated four-well chamber slides (Nalgen Nunc, Naperville, Ill.) and incubated with T-medium containing 5% FBS for 24 h. After the cells had attached to the chamber slides, the cells were washed with PBS (Phosphate Buffered Saline) and exposed to the cyanine dye at a concentration of 20 μM in T-medium. The slides were incubated at 37° C. for 30 min, washed twice with PBS to remove excess dyes, and cells were fixed with 10% formaldehyde at 4° C. The slides were then washed twice with PBS and covered with glass coverslips with an aqueous mounting medium (Sigma-Aldrich, St. Louis, Mo.). Images were recorded by confocal laser microscopy (Zeiss LSM 510 META, Germany) using a 633 nm excitation laser and 670-810 nm long pass filter, or a fluorescence microscope (Olympus 1×71; Olympus, Melville, N.Y.) equipped with a 75 W Xenon lamp and an Indo-Cyanine Green filter cube (excitation 750-800 nm; emission 820-860 nm) (Chroma, Rockingham, Vt.).
# Cells (1×10^4/well) were seeded on vitronectin-coated four-well chamber slides (Nalgen Nunc, Naperville, Ill.) and incubated with T-medium containing 5% FBS for 24 h. After the cells had attached to the chamber slides, the cells were washed with PBS (Phosphate Buffered Saline) and exposed to the cyanine dye at a concentration of 20 μM in medium. The slides were incubated at 37° C. for 30 min, washed twice with PBS to remove excess dyes, and fixed with 10% formaldehyde at 4° C. The slides were then washed twice with PBS and covered with glass coverslips with aqueous mounting medium (Sigma-Aldrich, St. Louis, Mo.). Images were recorded by confocal laser microscopy (Zeiss LSM 510 META, Germany) equipped with 633 nm excitation laser and 670-810 nm long pass filter.
# [2] = tested on: mouse pancreatic cancer cell lines (PDAC2.3, PDAC3.3, BTC3 and BTC4); assay: Uptake of NIR dyes by mouse pancreatic cancer cell lines; assay type: cell-based; settings: PDAC2.3, PDAC3.3, BTC3, BTC4; 20 μM dye
# [3] = tested on: ARCaPM cells; assay: Live-cell kinetics of dye uptake in prostate cancer cells; assay type: cell-based, human; settings: for uptake of dye in ARCaPM cells compared with normal P69 cells: 20 μM dye, live-cell spinning disc confocal
# Method: ARCaPM Cells were plated on live-cell imaging chambers from World Precision Instrument (Sarasota, Fla.) overnight. Cells were treated with IR-780 with different concentrations and were imaged using a Perkin-Elmer Ultraview ERS spinning discconfocal microscope. This system was mounted on a Zeiss Axiovert 200m inverted microscope equipped with a 37° C. stage warmer, incubator, and CO2 perfusion. A x63 or x100 Zeiss oil objective (numerical aperture, 1.4) was used for all images and a Z-stack was created using the attached piezo electric z-stepper motor. The 633 nm laser line of an argon ion laser (set at 60% power) was used to excite the IR-780 organic dye. For each comparison, the exposure time and laser intensity was kept identical for accurate intensity measurement. Pixel intensity was quantitated using Metamorph 6.1 (Universal Imaging, Downingtown, Pa.) and the mean pixel intensity was generated as grey level using the Region Statistics feature on the software.
# (§1) Cells were plated on live-cell imaging chambers (World Precision Instrument, Sarasota, Fla.) overnight. Cells were exposed to cyanine dyes at different concentrations and dye uptake was evaluated by a Perkin-Elmer Ultraview ERS spinning disc confocal microscope. This system was mounted on a Zeiss Axiovert 200m inverted microscope equipped with a 37° C. stage warmer, incubator, and constant CO2 perfusion. A 63× or 100× Zeiss oil objective (numerical aperture, 1.4) was used for live cell images and a Z-stack was created using the attached piezoelectric z-stepper motor. The 633 nm laser line of an argon ion laser (set at 60% power) was used to excite the cyanine dyes. […] For comparative studies, the exposure time and laser intensity were kept identical for accurate intensity measurements. Pixel intensity was quantified using Metamorph 6.1 (Universal Imaging, Downingtown, Pa.) and the mean pixel intensity was generated as grey level using the Region Statistics feature on the software (23). To determine the dye uptake by the mitochondria, the mitochondrial tracking dye Mito Tracker Orange CMTMROS (Molecular Probes, Carlsbad, Calif.) was used. To determine the dye localization in lysosomes, a lysosome tracking dye, Lyso Tracker Green DND-26 (Molecular Probes, Carlsbad, Calif.), was selected. Imaging of mitochondrial and/or lysosome localization of the cyanine dye was conducted under confocal microscopy (24).
# (§2) To determine if the cyanine dye uptake and accumulation in cancer cells was dependent upon OATPs, cells were preincubated with 250 μM bromosulfophthalein (BSP), a competitive inhibitor of organic anion transporting peptides (OATPs) (25), for 5 minutes prior to incubating the cells with cyanine dyes. The uptake and accumulation of cyanine dyes in the presence and absence of BSP were conducted in the stage warmer incubator for a period of 35 minutes. The levels of cyanine dye taken up and accumulated in normal prostate (P69) and prostate cancer (ARCaPM) cells were determined and compared on a real-time basis.
# [4] = tested on: P69 cells; assay: Live-cell kinetics of dye uptake in normal prostate epithelial cells; assay type: cell-based, human
# Method: as §1, §2
# [5] = tested on: renal cancer cells; assay: Subcellular co-localization in renal cancer cells; assay type: cell-based, human; settings: Mito tracker and Lyso tracker overlay
# Method: To determine the dye uptake by the mitochondria, the mitochondrial tracking dye, Mito Tracker Orange CMTMROS (Molecular Probes, Carlsbad, Calif.), was used. To determine the dye localization in lysosomes, a lysosome tracking dye, Lyso Tracker Green DND-26 (Molecular Probes, Carlsbad, Calif.), was selected. Images of mitochondrial and/or lysosome localization of the cyanine dye were merged and evidence of co-localization of the cyanine dye and tracking dyes were assessed by confocal imaging using a previously established protocol.^69
# [6] = tested on: ARCaPM orthotopic tumor metastases; assay: Detection of metastases of orthotopic ARCaPM tumors in mice; assay type: in vivo, mouse; settings: orthotopic ARCaPM (ARCaP) model; bone and soft tissue metastases
# Method: The spontaneous metastasis of ARCaPM tumor cells stably transduced with an AsRed2 red fluorescence protein (RFP) (Clontech, Mountain View, Calif.) by injecting these cells orthotopically in mice was studied. ARCaPM-RFP metastasis was determined by the same procedures described above for capturing cyanine dye tumor imaging after IR-783 i.p. injection at a dose of 10 nmol/20 g. In addition, at the time of sacrifice both frozen and paraffin embedded tissue sections were obtained for RFP and confocal fluorescence imaging. Positive identification of ARCaPM-RFP cells was accomplished by fluorescence microscopy and validated by subculturing ARCaPM-RFP cells directly from bone metastasis tissue specimens.
# [7] = for body weight: daily intraperitoneal injection, Balb/c mice
# Method: In control mice, the same volume of PBS was injected. The body weight and lethality of these mice were closely followed for 28 days.
# [8] = aqueous media; cited from earlier work
compound,measurement,setting,value
"2-[2-[2-Chloro-3-[2-[1,3-dihydro-3,3-dimethyl-1-(4-sulfobutyl)-2H-indol-2-ylidene]-ethylidene]-1-cyclohexen-1-yl]-ethenyl]-3,3-dimethyl-1-(4-sulfobutyl)-3H-indolium [IR-783]",uptake of dye by normal human cells in culture,[1],unable to be taken up by normal cells; also recorded: not to accumulate; also recorded: not taken up; also recorded: low uptake; also recorded: very low uptake
same,uptake of dye by mouse pancreatic cancer cell lines,[2],taken up by other malignant cells from both human and mouse; also recorded: significant uptake
same,uptake of dye in ARCaPM cells compared with normal P69 cells,[3],significant uptake
same,early phase of uptake and retention completed,[3]; ARCaP cells,12 min
same,late phase of uptake and retention completed,[3]; ARCaP cells,30 min
same,uptake of dye in P69 cells,"[4]; confocal imaging, 630×",not in normal human prostate epithelial P69 cells
same,plateau of uptake and retention compared with ARCaP cells,[4]; control P69 cells,much lower plateau
same,start of uptake and retention,[4]; control P69 cells,12 min
same,subcellular localization of the dye,[5],co-localization with mitochondrial and lysosome organelles
same,detection of metastases by NIR imaging,[6],highly effective in localizing tumors cells in soft tissues and in bone; also recorded: both the primary tumor and the metastases in mouse tibia/femur were detected; also recorded: signals attained in IR-783 imaging reflect metastases of the orthotopic ARCaPM tumor
same,body weight,"[7]; 0 day, 1X imaging dose",20.29 g
same,body weight,"[7]; 0 day, 10X imaging dose",20.57 g
same,body weight,"[7]; 0 day, 100X imaging dose",19.85 g
same,lethality in treated mice,"[7]; 100× imaging dose, 28 days",no lethality
same,body weight,"[7]; 1 day, 1X imaging dose",20.20 g
same,body weight,"[7]; 1 day, 10X imaging dose",20.61 g
same,body weight,"[7]; 1 day, 100X imaging dose",19.74 g
same,body weight,"[7]; 2 day, 1X imaging dose",20.23 g
same,body weight,"[7]; 2 day, 10X imaging dose",20.59 g
same,body weight,"[7]; 2 day, 100X imaging dose",20.01 g
same,body weight,"[7]; 3 day, 1X imaging dose",20.32 g
same,body weight,"[7]; 3 day, 10X imaging dose",20.98 g
same,body weight,"[7]; 3 day, 100X imaging dose",20.39 g
same,body weight,"[7]; 4 day, 1X imaging dose",20.34 g
same,body weight,"[7]; 4 day, 10X imaging dose",21.02 g
same,body weight,"[7]; 4 day, 100X imaging dose",20.43 g
same,body weight,"[7]; 5 day, 1X imaging dose",21.00 g
same,body weight,"[7]; 5 day, 10X imaging dose",21.34 g
same,body weight,"[7]; 5 day, 100X imaging dose",21.01 g
same,body weight,"[7]; 6 day, 1X imaging dose",21.87 g
same,body weight,"[7]; 6 day, 10X imaging dose",21.76 g
same,body weight,"[7]; 6 day, 100X imaging dose",21.23 g
same,body weight,"[7]; 7 day, 1X imaging dose",22.32 g
same,body weight,"[7]; 7 day, 10X imaging dose",22.54 g
same,body weight,"[7]; 7 day, 100X imaging dose",22.00 g
same,body weight,"[7]; 14 day, 1X imaging dose",23.91 g
same,body weight,"[7]; 14 day, 10X imaging dose",24.01 g
same,body weight,"[7]; 14 day, 100X imaging dose",23.76 g
same,body weight,"[7]; 28 day, 1X imaging dose",24.86 g
same,body weight,"[7]; 28 day, 10X imaging dose",24.87 g
same,body weight,"[7]; 28 day, 100X imaging dose",24.61 g
same,maximum absorption,[8],782 nm
"CCCN1C(=CC=C2CCCC(C=CC3=[N+](CCC)c4ccccc4C3(C)C)=C2Cl)C(C)(C)c2ccccc21.[I-] [IR-780, 2-[2-[2-Chloro-3-[(1,3-dihydro-3,3-dimethyl-1-propyl-2H-indol-2-ylidene)ethylidene]-1-cyclohexen-1-yl]ethenyl]-3,3-dimethyl-1-propylindolium iodide]",uptake of dye by normal human cells in culture,[1],unable to be taken up by normal cells; also recorded: very low uptake
same,uptake of dye in ARCaPM cells compared with normal P69 cells,[3],big difference in IR-780 uptake by cancer cells and normal cells
same,dye concentration needed to measure uptake into cancer cells in culture,[3]; time course and concentration dependence,20 to 50 µM
same,body weight,"[7]; 0 day, 1X imaging dose",19.00 g
same,body weight,"[7]; 0 day, 10X imaging dose",20.71 g
same,body weight,"[7]; 0 day, 100X imaging dose",20.14 g
same,day after injection at which all mice were killed,[7]; 100× excess of the imaging dose,2 days
same,body weight,"[7]; 1 day, 1X imaging dose",19.02 g
same,body weight,"[7]; 1 day, 10X imaging dose",20.69 g
same,body weight,"[7]; 1 day, 100X imaging dose",0 g
same,body weight,"[7]; 2 day, 1X imaging dose",19.71 g
same,body weight,"[7]; 2 day, 10X imaging dose",20.70 g
same,body weight,"[7]; 2 day, 100X imaging dose",0 g
same,body weight,"[7]; 3 day, 1X imaging dose",20.01 g
same,body weight,"[7]; 3 day, 10X imaging dose",21.03 g
same,body weight,"[7]; 3 day, 100X imaging dose",0 g
same,body weight,"[7]; 4 day, 1X imaging dose",20.32 g
same,body weight,"[7]; 4 day, 10X imaging dose",21.24 g
same,body weight,"[7]; 4 day, 100X imaging dose",0 g
same,body weight,"[7]; 5 day, 1X imaging dose",20.56 g
same,body weight,"[7]; 5 day, 10X imaging dose",21.89 g
same,body weight,"[7]; 5 day, 100X imaging dose",0 g
same,body weight,"[7]; 6 day, 1X imaging dose",20.97 g
same,body weight,"[7]; 6 day, 10X imaging dose",22.00 g
same,body weight,"[7]; 6 day, 100X imaging dose",0 g
same,body weight,"[7]; 7 day, 1X imaging dose",21.81 g
same,body weight,"[7]; 7 day, 10X imaging dose",22.56 g
same,body weight,"[7]; 7 day, 100X imaging dose",0 g
same,body weight,"[7]; 14 day, 1X imaging dose",23.56 g
same,body weight,"[7]; 14 day, 10X imaging dose",24.00 g
same,body weight,"[7]; 14 day, 100X imaging dose",0 g
same,body weight,"[7]; 28 day, 1X imaging dose",24.44 g
same,body weight,"[7]; 28 day, 10X imaging dose",24.56 g
same,body weight,"[7]; 28 day, 100X imaging dose",0 g
